# ChEMBL document CHEMBL1201862, “PubChem BioAssay data set” (2004)
# The source made the active and inactive calls.
# How the values were obtained:
# [1] = molecular target: Protein Wnt-3a (Mus musculus, UniProt P27467); assay: antagonism of Wnt3a pathway luciferase reporter – Wnt-LIGHT cells, luminescence, selectivity assay for Gli-SUFU antagonist project, dose response (AID 651570); format: functional; conditions: read-out: IC50_Mean;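 also: Wnt-LIGHT reporter cells stimulated with conditioned medium from Wnt3a-producing cells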
# [2] = molecular target: T1, Histone-lysine N-methyltransferase NSD2 (Homo sapiens, UniProt O96028); format: biochemical
# T1 sequence (O96028 whole entry): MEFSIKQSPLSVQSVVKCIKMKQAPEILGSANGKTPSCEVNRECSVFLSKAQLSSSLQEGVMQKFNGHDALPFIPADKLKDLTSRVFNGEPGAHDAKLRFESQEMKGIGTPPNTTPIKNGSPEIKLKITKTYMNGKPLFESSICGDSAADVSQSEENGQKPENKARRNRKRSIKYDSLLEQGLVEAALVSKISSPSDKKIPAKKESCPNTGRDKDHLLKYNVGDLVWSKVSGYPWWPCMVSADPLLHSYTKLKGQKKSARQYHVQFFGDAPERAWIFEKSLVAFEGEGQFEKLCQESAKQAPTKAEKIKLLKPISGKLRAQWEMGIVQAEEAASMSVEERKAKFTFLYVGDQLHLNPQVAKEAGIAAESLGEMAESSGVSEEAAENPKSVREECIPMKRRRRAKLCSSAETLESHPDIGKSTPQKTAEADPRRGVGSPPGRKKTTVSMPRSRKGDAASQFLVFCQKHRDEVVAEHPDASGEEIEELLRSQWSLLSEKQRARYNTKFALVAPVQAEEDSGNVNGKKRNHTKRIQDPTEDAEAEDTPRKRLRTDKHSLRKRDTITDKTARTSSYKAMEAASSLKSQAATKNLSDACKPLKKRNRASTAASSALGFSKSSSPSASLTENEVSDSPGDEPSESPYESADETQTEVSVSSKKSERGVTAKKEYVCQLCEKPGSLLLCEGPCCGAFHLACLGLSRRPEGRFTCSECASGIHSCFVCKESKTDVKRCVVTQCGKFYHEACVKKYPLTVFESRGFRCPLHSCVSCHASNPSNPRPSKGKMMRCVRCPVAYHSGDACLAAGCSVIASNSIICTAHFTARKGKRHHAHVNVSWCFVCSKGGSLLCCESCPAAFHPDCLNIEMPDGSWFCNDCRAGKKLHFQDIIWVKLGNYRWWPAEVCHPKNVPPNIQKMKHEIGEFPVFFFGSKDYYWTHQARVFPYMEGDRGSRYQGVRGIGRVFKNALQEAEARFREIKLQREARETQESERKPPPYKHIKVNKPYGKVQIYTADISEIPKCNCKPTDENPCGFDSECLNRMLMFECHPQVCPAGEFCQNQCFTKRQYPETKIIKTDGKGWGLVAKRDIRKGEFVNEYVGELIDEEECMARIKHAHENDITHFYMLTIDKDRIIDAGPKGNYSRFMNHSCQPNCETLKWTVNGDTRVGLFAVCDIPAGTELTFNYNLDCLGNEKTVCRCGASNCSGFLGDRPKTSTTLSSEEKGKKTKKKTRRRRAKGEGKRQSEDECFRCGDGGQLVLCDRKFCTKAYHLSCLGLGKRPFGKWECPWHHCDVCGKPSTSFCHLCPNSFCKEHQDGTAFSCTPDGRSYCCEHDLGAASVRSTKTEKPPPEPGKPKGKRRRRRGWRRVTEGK
# [3] = molecular target: Adenosylmethionine-8-amino-7-oxononanoate aminotransferase (Mycobacterium tuberculosis, UniProt P9WQ81); assay: Mycobacterium tuberculosis BioA enzyme inhibitor Measured in Biochemical System Using Plate Reader - 2163-02_Inhibitor_Dose_CherryPick_Activity.; format: functional, Mycobacterium tuberculosis UT205
# [4] = tested on: BJ; assay: cells; format: functional, cell-based; conditions: Homo sapiens
# [5] = DRD fibroblast viability loss – cell-based, non-viral oncogenic, luminescence, dose response (AID 1934); format: functional; conditions: Homo sapiens
# [6] = tested on: BJ; assay: BJ-TERT-LT-ST fibroblast viability loss – cell-based, RAS-independent, luminescence, dose response (AID 1935); format: functional; conditions: Homo sapiens;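 also: BJ fibroblasts immortalized with TERT plus LT and ST oncogenes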
# [7] = tested on: BJ; assay: growth inhibition of engineered Ras-driven BJ cells – cell-based, alamar blue fluorescence, cherrypicked samples, dose response (AID 2631); format: functional; conditions: Homo sapiens;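 also: confirmatory dose-response assay in RAS-dependent BJ fibroblasts engineered with TERT, LT and ST, with cytotoxicity read by fluorescence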
# [8] = tested on: BJ; assay: BJ-TERT fibroblast viability loss – cell-based, RAS-independent, luminescence, dose response (AID 1933); format: functional; conditions: Homo sapiens
# [9] = molecular target: Cytochrome P450 2C19 (Homo sapiens, UniProt P33261); assay: Cytochrome panel assay with activity outcomes. Panel member name: p450-cyp2c19 Compounds with AC50 equal or less than 10 uM are considered active; format: functional; conditions: read-out: AC50
# [10] = molecular target: Cytochrome P450 2D6 (Homo sapiens, UniProt P10635);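 also: CYP2D6 member of a cytochrome P450 panel assay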
# [11] = tested on: HEK293; assay: EBV LMP1 TES2 canonical NF-kB signalling blockers – cell-based, HEK293, luciferase, cherry-pick, dose response (AID 588343); format: functional; conditions: Homo sapiens
# [12] = molecular target: T2, Cytochrome P450 1A2 (Homo sapiens, UniProt P05177);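 also: PubChem cytochrome P450 panel assay, CYP1A2 panel member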
# T2 sequence (P05177 whole entry): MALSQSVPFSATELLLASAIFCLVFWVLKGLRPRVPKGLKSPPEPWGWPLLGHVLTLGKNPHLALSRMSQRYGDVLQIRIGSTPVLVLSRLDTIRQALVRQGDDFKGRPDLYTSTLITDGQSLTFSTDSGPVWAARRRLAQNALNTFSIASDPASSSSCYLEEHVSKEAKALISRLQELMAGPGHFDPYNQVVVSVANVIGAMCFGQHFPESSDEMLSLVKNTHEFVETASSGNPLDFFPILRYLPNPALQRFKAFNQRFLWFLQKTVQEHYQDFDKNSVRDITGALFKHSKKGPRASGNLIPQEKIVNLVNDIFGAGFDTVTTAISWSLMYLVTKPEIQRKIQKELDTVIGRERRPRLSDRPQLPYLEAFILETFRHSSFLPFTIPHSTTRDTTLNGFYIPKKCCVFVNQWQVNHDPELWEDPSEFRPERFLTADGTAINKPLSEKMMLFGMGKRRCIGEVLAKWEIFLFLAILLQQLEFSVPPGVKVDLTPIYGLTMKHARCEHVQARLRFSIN
# [13] = molecular target: T3, Latent membrane protein 1 (Human herpesvirus 4 (strain B95-8), UniProt P03230); assay: LMP1 TES1 pathway selectivity over dsRED control – imaging, HEK293T, dual-color eGFP/dsRED, cherry-picks, selectivity assay for LMP1 NF-kB inhibitor project, dose response (AID 588398); format: functional, cell-based
# T3 sequence (P03230 whole entry): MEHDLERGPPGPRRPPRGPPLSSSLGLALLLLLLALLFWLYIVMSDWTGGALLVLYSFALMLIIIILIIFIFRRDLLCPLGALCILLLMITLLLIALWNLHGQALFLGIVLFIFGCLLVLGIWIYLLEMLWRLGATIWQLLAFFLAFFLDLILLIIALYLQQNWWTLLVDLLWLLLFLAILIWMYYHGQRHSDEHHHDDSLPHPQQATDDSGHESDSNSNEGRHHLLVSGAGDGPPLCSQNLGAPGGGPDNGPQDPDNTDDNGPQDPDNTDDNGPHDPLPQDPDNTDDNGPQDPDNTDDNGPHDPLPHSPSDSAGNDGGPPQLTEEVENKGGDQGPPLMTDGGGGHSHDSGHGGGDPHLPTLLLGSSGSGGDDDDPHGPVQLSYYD
# [14] = blockers of HIV-1 envelope-mediated cell-cell fusion – cherry-pick, dose response (AID 652057); format: functional, cell-based
# [15] = HIV-1 AD8 envelope cell-cell fusion blockers – cherry-pick, dose response (AID 652062); format: functional, cell-based;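 also: luciferase signal from cell-cell fusion driven by HIV-1 clade B AD8 Env; potency is for inhibitors of fusion seen as a drop in luminescence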
# [16] = molecular target: T4, Rac GTPase-activating protein 1 (Homo sapiens, UniProt Q9H0H5); assay: blockers of MgcRacGAP-driven Rac1 GTP hydrolysis – biochemical, ADP Hunter fluorescence, primary and confirmatory, confirmation (AID 624330); format: functional
# T4 sequence (Q9H0H5 whole entry): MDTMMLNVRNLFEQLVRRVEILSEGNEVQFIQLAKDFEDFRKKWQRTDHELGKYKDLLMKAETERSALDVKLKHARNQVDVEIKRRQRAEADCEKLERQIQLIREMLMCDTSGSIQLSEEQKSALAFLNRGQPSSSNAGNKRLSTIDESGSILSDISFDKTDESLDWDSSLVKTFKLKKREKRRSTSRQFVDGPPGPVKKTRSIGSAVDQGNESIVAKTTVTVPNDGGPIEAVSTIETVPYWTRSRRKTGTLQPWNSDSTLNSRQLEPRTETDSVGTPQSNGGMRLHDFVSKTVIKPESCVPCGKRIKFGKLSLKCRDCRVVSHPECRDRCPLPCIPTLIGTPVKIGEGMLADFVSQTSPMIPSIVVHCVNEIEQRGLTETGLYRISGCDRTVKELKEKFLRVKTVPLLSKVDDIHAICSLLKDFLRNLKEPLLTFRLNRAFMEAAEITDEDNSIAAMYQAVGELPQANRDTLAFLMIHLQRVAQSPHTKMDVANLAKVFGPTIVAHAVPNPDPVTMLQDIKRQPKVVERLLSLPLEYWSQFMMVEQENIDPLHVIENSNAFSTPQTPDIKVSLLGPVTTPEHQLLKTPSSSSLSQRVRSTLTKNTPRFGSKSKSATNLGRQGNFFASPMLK
# [17] = Fluorescence-based cell-based high throughput dose response assay for inhibitors of the interaction of nucleotide-binding oligomerization domain containing 2 (NOD2) and the receptor-interacting serine-threonine kinase 2 (RIPK2).; format: functional; conditions: Homo sapiens
# [18] = molecular target: T5, Microphthalmia-associated transcription factor (Homo sapiens, UniProt O75030); assay: reducers of TRPM1 reporter luminescence, concentration series – cell-based, SK-MEL-5, cherry-picked, set 3, MITF inhibitor project, dose response (AID 493073); format: functional;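 also: SK-MEL-5 melanoma cells with luciferase driven by the MITF target TRPM1 promoter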
# T5 sequence (O75030 whole entry): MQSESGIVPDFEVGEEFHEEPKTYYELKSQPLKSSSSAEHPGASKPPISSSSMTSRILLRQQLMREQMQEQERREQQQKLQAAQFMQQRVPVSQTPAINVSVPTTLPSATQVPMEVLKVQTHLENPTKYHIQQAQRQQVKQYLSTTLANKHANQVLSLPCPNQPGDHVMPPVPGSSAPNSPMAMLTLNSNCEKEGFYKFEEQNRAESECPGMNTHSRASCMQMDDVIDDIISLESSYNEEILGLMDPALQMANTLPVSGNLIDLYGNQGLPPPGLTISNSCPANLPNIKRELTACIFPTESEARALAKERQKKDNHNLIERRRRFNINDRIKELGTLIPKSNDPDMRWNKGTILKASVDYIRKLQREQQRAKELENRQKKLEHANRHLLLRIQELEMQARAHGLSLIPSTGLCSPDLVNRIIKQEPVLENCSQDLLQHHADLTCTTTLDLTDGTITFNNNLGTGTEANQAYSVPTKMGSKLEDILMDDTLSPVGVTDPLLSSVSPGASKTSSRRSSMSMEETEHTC
# [19] = tested on: Streptococcus; assay: GAS UMAA2166 growth inhibition – luminescence, BacTiterGlo, counter-screen for streptokinase expression inhibitor project, dose response (AID 1915); format: functional, organism-based;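 also: potency for reduction of bacterial viability or growth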
# [20] = tested on: INS1; assay: INS-1E survival protection against cytokine death – cell-based, luminescence, retest, dose response (AID 449756); format: functional; conditions: Rattus norvegicus, INS1;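 also: cell death triggered by IL-1 beta plus TNF-alpha plus IFN-gamma mixture; protective hits raise ATP signal compared with cytokine alone wells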
# [21] = tested on: Streptococcus sp. 'group A'; assay: Streptococcus pyogenes SK(-)GAS viability under kanamycin – luminescence, BacTiterGlo, confirmation, counter-screen for streptokinase expression inhibitor project, dose response (AID 1900); format: functional, organism-based
# [22] = molecular target: Nonstructural protein 1 (Influenza A virus, UniProt Q194T2); format: functional, Influenza A virus (A/California/07/2009(H1N1))
# [23] = Luminescence-based counterscreen assay for KLF5 inhibitors: dose response cell-based high throughput screening assay to identify cytotoxic compounds using the IEC-6 intestinal epithelial cell line. [Related pubchem assays: 1700 (Primary screen.), 1834 (Confirmation screen.), 1858 (Summary AID.), 1905 (Counterscreen.)]; format: functional
# [24] = intracellular Trypanosoma cruzi inhibitors in host cells – cell-based, plate reader, cherry-pick samples, set 3, dose response (AID 651818); format: functional;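 also: compounds incubated with infected cells for about four days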
# [25] = molecular target: Mitochondrial peptide methionine sulfoxide reductase (Bos taurus, UniProt P54149); format: functional;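 also: absorbance read-out, biochemical high-throughput dose-response screen for MsrA inhibitors, confirmatory; recombinant bovine MsrA coupled to E. coli TrxB with NADPH and selenocystamine; potency is for inhibitors of MsrA activity on DMSO substrate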
# Sequence of Mitochondrial peptide methionine sulfoxide reductase (P54149 whole entry): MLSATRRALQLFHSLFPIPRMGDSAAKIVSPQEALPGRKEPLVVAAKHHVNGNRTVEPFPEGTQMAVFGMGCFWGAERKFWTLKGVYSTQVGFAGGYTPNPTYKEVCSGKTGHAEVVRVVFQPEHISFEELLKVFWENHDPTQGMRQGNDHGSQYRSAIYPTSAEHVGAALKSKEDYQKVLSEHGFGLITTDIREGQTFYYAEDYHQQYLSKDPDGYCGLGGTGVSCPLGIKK
# Sequence of Adenosylmethionine-8-amino-7-oxononanoate aminotransferase (P9WQ81 whole entry): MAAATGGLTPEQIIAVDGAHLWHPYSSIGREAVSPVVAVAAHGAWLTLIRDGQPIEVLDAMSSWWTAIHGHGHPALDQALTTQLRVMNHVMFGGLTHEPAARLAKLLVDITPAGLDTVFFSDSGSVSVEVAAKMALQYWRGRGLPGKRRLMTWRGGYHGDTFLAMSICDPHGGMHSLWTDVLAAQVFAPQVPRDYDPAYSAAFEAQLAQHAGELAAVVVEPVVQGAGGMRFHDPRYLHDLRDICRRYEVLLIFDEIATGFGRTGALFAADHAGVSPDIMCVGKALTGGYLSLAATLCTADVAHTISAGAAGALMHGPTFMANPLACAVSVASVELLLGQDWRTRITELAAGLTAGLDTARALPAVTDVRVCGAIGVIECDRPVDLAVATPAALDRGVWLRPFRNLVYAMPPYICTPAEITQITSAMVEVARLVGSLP
# Sequence of Protein Wnt-3a (P27467 whole entry): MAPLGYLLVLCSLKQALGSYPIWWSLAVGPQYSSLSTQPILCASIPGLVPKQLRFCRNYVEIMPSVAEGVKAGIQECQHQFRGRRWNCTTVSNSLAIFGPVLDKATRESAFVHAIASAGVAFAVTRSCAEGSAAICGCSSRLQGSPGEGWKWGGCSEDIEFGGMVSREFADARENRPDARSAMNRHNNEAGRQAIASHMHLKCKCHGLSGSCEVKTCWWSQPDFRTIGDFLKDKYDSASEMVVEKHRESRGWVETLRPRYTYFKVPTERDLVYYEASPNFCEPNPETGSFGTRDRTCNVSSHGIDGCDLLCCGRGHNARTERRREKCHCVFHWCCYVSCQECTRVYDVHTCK
# Sequence of Cytochrome P450 2D6 (P10635 whole entry): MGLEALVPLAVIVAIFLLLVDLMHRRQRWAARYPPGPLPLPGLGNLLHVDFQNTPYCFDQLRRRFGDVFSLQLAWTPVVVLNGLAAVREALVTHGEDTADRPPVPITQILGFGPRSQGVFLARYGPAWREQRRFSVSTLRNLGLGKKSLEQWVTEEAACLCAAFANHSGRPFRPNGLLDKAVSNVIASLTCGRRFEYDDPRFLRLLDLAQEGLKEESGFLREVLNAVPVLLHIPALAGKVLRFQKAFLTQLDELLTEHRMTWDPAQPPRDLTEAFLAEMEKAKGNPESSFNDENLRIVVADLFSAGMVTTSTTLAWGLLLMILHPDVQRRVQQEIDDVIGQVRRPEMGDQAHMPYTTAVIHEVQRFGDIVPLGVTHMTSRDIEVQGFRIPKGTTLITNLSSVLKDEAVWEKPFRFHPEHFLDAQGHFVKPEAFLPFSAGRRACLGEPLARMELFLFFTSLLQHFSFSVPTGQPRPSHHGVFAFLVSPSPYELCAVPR
# Sequence of Cytochrome P450 2C19 (P33261 whole entry): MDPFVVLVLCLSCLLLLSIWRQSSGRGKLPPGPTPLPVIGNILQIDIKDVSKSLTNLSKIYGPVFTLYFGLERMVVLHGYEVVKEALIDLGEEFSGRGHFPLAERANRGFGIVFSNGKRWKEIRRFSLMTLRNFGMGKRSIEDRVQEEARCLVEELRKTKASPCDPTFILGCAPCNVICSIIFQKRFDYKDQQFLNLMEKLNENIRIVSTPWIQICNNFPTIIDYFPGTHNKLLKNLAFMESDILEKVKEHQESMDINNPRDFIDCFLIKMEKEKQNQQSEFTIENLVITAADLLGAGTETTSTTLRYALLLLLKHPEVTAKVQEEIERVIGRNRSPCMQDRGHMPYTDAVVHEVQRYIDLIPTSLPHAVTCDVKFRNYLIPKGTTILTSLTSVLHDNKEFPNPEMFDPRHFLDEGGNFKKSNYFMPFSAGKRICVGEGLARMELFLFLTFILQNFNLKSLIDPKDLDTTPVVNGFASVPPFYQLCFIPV
# Sequence of Nonstructural protein 1 (Q194T2 whole entry): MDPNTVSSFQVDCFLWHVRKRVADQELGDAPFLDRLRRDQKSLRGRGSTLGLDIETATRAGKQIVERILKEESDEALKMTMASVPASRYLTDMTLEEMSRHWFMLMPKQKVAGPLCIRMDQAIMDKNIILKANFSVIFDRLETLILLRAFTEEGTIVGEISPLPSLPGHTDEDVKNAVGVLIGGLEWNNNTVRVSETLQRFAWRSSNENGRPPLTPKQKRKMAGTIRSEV
compound,measurement,setting,value
CCN1CCCC1CNc1[nH]cnc2c3cc(Cl)ccc3nc1-2 (stereo not given),IC50,[1],50 µM (inactive)
same,AC50,[2],> 20 µM (inactive)
COc1ccc(Nc2c(-c3ccc(OC)cc3)nc3cnccn23)cc1,AC50,[3],1.34 µM (active)
COc1ccc(Cn2ccc(=O)c(Cc3c(Cl)cccc3Cl)c2C)cc1,AC50,[3],7.22 µM (active)
Cc1ccc(/C=C2\SC(=S)N(CCCC(=O)N3CCOCC3)C2=O)cc1,EC50,[4],> 150 µM (not active)
same,EC50,[5],15.3 µM (active)
same,EC50,[6],> 150 µM (inconclusive)
same,EC50,[7],> 66.7 µM (inactive)
same,EC50,[8],7.06 µM (inconclusive)
COc1ccc(S(=O)(=O)NNC(=O)C2Cc3c(ccc4ccccc34)O2)cc1 (stereo not given),AC50,[9],5.62 µM (inconclusive)
same,AC50,[10],39.8 µM (inconclusive)
same,AC50,[11],> 350 µM (inactive)
same,AC50,[12],25.1 µM (inconclusive)
same,AC50,[13],74.8 µM (active)
same,AC50,[14],43.7 µM (active)
same,AC50,[15],13.2 µM (active)
CCN(CC)CCC(=O)N1C/C(=C/c2ccccc2)C(=O)/C(=C\c2ccccc2)C1,IC50,[16],111 µM (active)
same,AC50,[11],4.89 µM (active)
same,IC50,[17],3.5 µM (active)
same,AC50,[18],4.72 µM (active)
O=C(N/N=C/c1cc(Cl)ccc1O)c1cccnc1,AC50,[13],128 µM (active)
same,EC50,[19],7.97 µM (active)
same,AC50,[20],1.71 µM (active)
same,EC50,[21],1.81 µM (active)
same,IC50,[22],5.8 µM (active)
same,IC50,[23],> 1.48 µM (active)
C[C@H](CO)N1C[C@H](C)[C@H](CN(C)Cc2ccc3c(c2)OCO3)Oc2c(NC(=O)c3nc4ccccc4s3)cccc2C1=O,AC50,[24],4.58 µM (active)
C[C@@H]1CN([C@@H](C)CO)C(=O)Cc2cc(NC(=O)Nc3ccc(F)cc3)ccc2O[C@@H]1CN(C)Cc1ccc(C(=O)Nc2ccccc2N)cc1,AC50,[24],2.16 µM (active)
CCOC(=O)/C(C#N)=C/C(C(=N)N1CCN(c2ccc(OC)cc2)CC1)=C(/O)OCC,IC50,[25],139 µM (inactive)
CCOC(=O)/C(C#N)=C/Nc1ccccc1OC,IC50,[25],155 µM (inactive)
